Earlier results as cited in patent US20250009771A1, “PHARMACEUTICAL COMPOSITION FOR TREATING COLORECTAL CANCER, INCLUDING TUMOR-TARGETED LIPOSOMES CONTAINING PLATYCODIN D2” (INDUSTRY-UNIVERSITY COOPERATION FOUNDATION HANYANG …, priority 2023, published 2025).

Legend:
BCL-XL = biological target: T1, BCL-XL (Homo sapiens, UniProt Q07817); conditions: cited from earlier work
T1 construct: host or cells: adenomas and tumor organoids (endogenous protein)

[1] = slightly acidic pH; cited from earlier work

T1 sequence (Q07817 whole entry, species assumed): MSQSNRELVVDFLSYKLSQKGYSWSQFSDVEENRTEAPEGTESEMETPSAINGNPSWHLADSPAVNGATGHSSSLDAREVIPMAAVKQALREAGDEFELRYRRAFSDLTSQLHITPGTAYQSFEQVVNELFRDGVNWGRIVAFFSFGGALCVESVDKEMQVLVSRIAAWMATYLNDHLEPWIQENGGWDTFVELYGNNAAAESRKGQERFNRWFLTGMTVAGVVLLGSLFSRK

Molecule | clonogenic potential of adenomas and tumor organoids (BCL-XL) | pK of insertion into the cell membrane [1]
CN(C)CC#Cc1ccc(OCCCc2sc(N3CCc4cccc(C(=O)Nc5nc6ccccc6s5)c4C3)nc2C(=O)O)c(F)c1 [A-1155463] | significantly impaired | –
GLAGLAGLLGLEGLLGLPLGLLEGLWLGLELEGN [ATRAM, pH-responsive acidity-triggered rational membrane peptide] | – | 6.5
